In US10131652B2, “Pyrimidinyloxy benzene derivatives as herbicides” (E. I. DU PONT DE NEMOURS AND COMPANY, priority 2014, dated 2018):

Assays:
Assay type in all cases: in vivo
rice (Oryza sativa) = test: Test C flooded paddy test plant response; settings: Flood, 250 g ai/ha; scale of 0 to 100 where 0 is no effect and 100 is complete control; 13 to 15 days
Procedure, shortened: (§1)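 Flooded-pot format, 3 cm water over soil maintained for the test duration; test compounds dispensed into the water at the 2-leaf stage. Greenhouse holding 13 to 15 days. Plants evaluated visually relative to untreated controls, 0 meaning no effect and 100 complete control.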

[1] = system: small-flower umbrella sedge (Cyperus difformis); test: Test C flooded paddy test plant response; settings: Flood, 250 g ai/ha; scale of 0 to 100 where 0 is no effect and 100 is complete control; 13 to 15 days
Procedure, shortened: as §1

[2] = system: ducksalad (Heteranthera limosa); test: Test C flooded paddy test plant response; settings: Flood, 250 g ai/ha; scale of 0 to 100 where 0 is no effect and 100 is complete control; 13 to 15 days
Procedure, shortened: as §1

[3] = system: barnyardgrass (Echinochloa crus-galli); test: Test C flooded paddy test plant response; settings: Flood, 250 g ai/ha; scale of 0 to 100 where 0 is no effect and 100 is complete control; 13 to 15 days
Procedure, shortened: as §1

[4] = system: wheat (Triticum aestivum); test: Test B pre-/postemergence plant response
Procedure, shortened: (§2)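 Evaluation is visual, about 10 days after application, rating injury from 0 (none) to 100 (complete control) relative to untreated controls. Application was a preemergence soil spray on seeded pots or a postemergence spray on one- to two-leaf plants.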

[5] = system: morningglory (Ipomoea spp.); test: Test B pre-/postemergence plant response
Procedure, shortened: as §2

[6] = system: velvetleaf (Abutilon theophrasti); test: Test B pre-/postemergence plant response
Procedure, shortened: as §2

[7] = system: large (Lg) crabgrass (Digitaria sanguinalis); test: Test B pre-/postemergence plant response
Procedure, shortened: as §2

[8] = system: barnyardgrass (Echinochloa crus-galli); test: Test B pre-/postemergence plant response
Procedure, shortened: as §2

[9] = system: pigweed (Amaranthus retroflexus); test: Test B pre-/postemergence plant response
Procedure, shortened: as §2

[10] = system: giant foxtail (Setaria faberii); test: Test B pre-/postemergence plant response
Procedure, shortened: as §2

corn (Zea mays) = test: Test B pre-/postemergence plant response
Procedure, shortened: as §2

[11] = 125 g ai/ha, postemergence, 0 to 100 scale, 0 no effect, 100 complete control
[12] = 500 g ai/ha, postemergence, 0 to 100 scale, 0 no effect, 100 complete control
[13] = Preemergence, 125 g ai/ha, 0 to 100 scale (0 no effect, 100 complete control)
[14] = Preemergence, 500 g ai/ha, 0 to 100 scale where 0 is no effect and 100 is complete control
[15] = Postemergence, 500 g ai/ha, 0 to 100 scale (0 no effect, 100 complete control)
[16] = Preemergence, 125 g ai/ha, 0 to 100 scale where 0 is no effect and 100 is complete control
[17] = Preemergence, 500 g ai/ha, 0 to 100 scale (0 no effect, 100 complete control)
[18] = Postemergence, 1000 g ai/ha, 0 to 100 scale (0 no effect, 100 complete control)
[19] = Preemergence, 1000 g ai/ha, 0 to 100 scale (0 no effect, 100 complete control)

N#Cc1cccc(-n2cc(Br)cn2)c1Oc1ncc(Cl)cn1 [Compound 209]
Rice plant response rating (rice (Oryza sativa)): 0 | Sedge, Umbrella plant response rating [1]: 0 | Ducksalad plant response rating [2]: 0 | Barnyardgrass plant response rating [3]: 0 | Plant response rating, Wheat [4, 11]: 0 | Plant response rating, Wheat [4, 12]: 0 | Wheat plant response rating [4, 13]: 0 | Plant response rating, Wheat [4, 14]: 0 | Plant response rating, Morningglory [5, 11]: 30 | Plant response rating, Morningglory [5, 12]: 30 | Morningglory plant response rating [5, 13]: 0 | Plant response rating, Morningglory [5, 14]: 0 | Plant response rating, Velvetleaf [6, 11]: 30 | Plant response rating, Velvetleaf [6, 12]: 30 | Velvetleaf plant response rating [6, 13]: 0 | Plant response rating, Velvetleaf [6, 14]: 0 | Plant response rating, Crabgrass, Large [7, 11]: 10 | Plant response rating, Crabgrass, Large [7, 12]: 30 | Crabgrass, Large plant response rating [7, 13]: 70 | Plant response rating, Crabgrass, Large [7, 14]: 100 | Plant response rating, Barnyardgrass [8, 11]: 0 | Plant response rating, Barnyardgrass [8, 12]: 0 | Barnyardgrass plant response rating [8, 13]: 0 | Plant response rating, Barnyardgrass [8, 14]: 10 | Plant response rating, Pigweed [9, 11]: 90 | Plant response rating, Pigweed [9, 12]: 100 | Pigweed plant response rating [9, 13]: 90 | Plant response rating, Pigweed [9, 14]: 100 | Plant response rating, Foxtail, Giant [10, 11]: 0 | Plant response rating, Foxtail, Giant [10, 12]: 30 | Foxtail, Giant plant response rating [10, 13]: 30 | Plant response rating, Foxtail, Giant [10, 14]: 100 | Plant response rating, Corn (corn (Zea mays); [11]): 0 | Plant response rating, Corn (corn (Zea mays); [12]): 0 | Corn plant response rating (corn (Zea mays); [13]): 0 | Plant response rating, Corn (corn (Zea mays); [14]): 0

Clc1cnc(Oc2ccccc2-c2cccnc2)nc1 [Compound 4]
Rice plant response rating (rice (Oryza sativa)): 0 | Sedge, Umbrella plant response rating [1]: 0 | Ducksalad plant response rating [2]: 0 | Barnyardgrass plant response rating [3]: 0 | Plant response rating, Wheat [4, 11]: 0 | Plant response rating, Wheat [4, 15]: 0 | Plant response rating, Wheat [4, 16]: 0 | Plant response rating, Wheat [4, 17]: 0 | Plant response rating, Morningglory [5, 11]: 0 | Plant response rating, Morningglory [5, 15]: 30 | Plant response rating, Morningglory [5, 16]: 0 | Plant response rating, Morningglory [5, 17]: 0 | Plant response rating, Velvetleaf [6, 11]: 30 | Plant response rating, Velvetleaf [6, 15]: 60 | Plant response rating, Velvetleaf [6, 16]: 0 | Plant response rating, Velvetleaf [6, 17]: 30 | Plant response rating, Crabgrass, Large [7, 11]: 20 | Plant response rating, Crabgrass, Large [7, 15]: 50 | Plant response rating, Crabgrass, Large [7, 16]: 10 | Plant response rating, Crabgrass, Large [7, 17]: 80 | Plant response rating, Barnyardgrass [8, 11]: 0 | Plant response rating, Barnyardgrass [8, 15]: 10 | Plant response rating, Barnyardgrass [8, 16]: 0 | Plant response rating, Barnyardgrass [8, 17]: 0 | Plant response rating, Pigweed [9, 11]: 30 | Plant response rating, Pigweed [9, 15]: 100 | Plant response rating, Pigweed [9, 16]: 30 | Plant response rating, Pigweed [9, 17]: 70 | Plant response rating, Foxtail, Giant [10, 11]: 0 | Plant response rating, Foxtail, Giant [10, 15]: 30 | Plant response rating, Foxtail, Giant [10, 16]: 10 | Plant response rating, Foxtail, Giant [10, 17]: 50 | Plant response rating, Corn (corn (Zea mays); [16]): 0 | Plant response rating, Corn (corn (Zea mays); [17]): 0

Fc1cccc(Oc2ncc(Cl)cn2)c1-c1cccc(OC(F)(F)F)c1 [Compound 46]
Rice plant response rating (rice (Oryza sativa)): 35 | Sedge, Umbrella plant response rating [1]: 50 | Ducksalad plant response rating [2]: 60 | Barnyardgrass plant response rating [3]: 20 | Plant response rating, Wheat [4, 18]: 20 | Plant response rating, Wheat [4, 19]: 10 | Plant response rating, Morningglory [5, 18]: 70 | Plant response rating, Morningglory [5, 19]: 10 | Plant response rating, Velvetleaf [6, 18]: 100 | Plant response rating, Velvetleaf [6, 19]: 20 | Plant response rating, Crabgrass, Large [7, 18]: 100 | Plant response rating, Crabgrass, Large [7, 19]: 100 | Plant response rating, Barnyardgrass [8, 18]: 90 | Plant response rating, Barnyardgrass [8, 19]: 80 | Plant response rating, Pigweed [9, 18]: 100 | Plant response rating, Pigweed [9, 19]: 100 | Plant response rating, Foxtail, Giant [10, 18]: 100 | Plant response rating, Foxtail, Giant [10, 19]: 100 | Plant response rating, Corn (corn (Zea mays); [18]): 20 | Plant response rating, Corn (corn (Zea mays); [19]): 0

FC(F)(F)c1nccc(-c2ccccc2Oc2ncc(Cl)cn2)n1 [Compound 20]
Rice plant response rating (rice (Oryza sativa)): 0 | Sedge, Umbrella plant response rating [1]: 0 | Ducksalad plant response rating [2]: 0 | Barnyardgrass plant response rating [3]: 0 | Plant response rating, Wheat [4, 11]: 0 | Plant response rating, Wheat [4, 15]: 0 | Plant response rating, Wheat [4, 16]: 0 | Plant response rating, Wheat [4, 17]: 0 | Plant response rating, Morningglory [5, 11]: 0 | Plant response rating, Morningglory [5, 15]: 50 | Plant response rating, Morningglory [5, 16]: 0 | Plant response rating, Morningglory [5, 17]: 0 | Plant response rating, Velvetleaf [6, 11]: 0 | Plant response rating, Velvetleaf [6, 15]: 30 | Plant response rating, Velvetleaf [6, 16]: 0 | Plant response rating, Velvetleaf [6, 17]: 20 | Plant response rating, Crabgrass, Large [7, 11]: 0 | Plant response rating, Crabgrass, Large [7, 15]: 20 | Plant response rating, Crabgrass, Large [7, 16]: 10 | Plant response rating, Crabgrass, Large [7, 17]: 70 | Plant response rating, Barnyardgrass [8, 11]: 0 | Plant response rating, Barnyardgrass [8, 15]: 0 | Plant response rating, Barnyardgrass [8, 16]: 0 | Plant response rating, Barnyardgrass [8, 17]: 0 | Plant response rating, Pigweed [9, 11]: 40 | Plant response rating, Pigweed [9, 15]: 90 | Plant response rating, Pigweed [9, 16]: 0 | Plant response rating, Pigweed [9, 17]: 20 | Plant response rating, Foxtail, Giant [10, 11]: 0 | Plant response rating, Foxtail, Giant [10, 15]: 20 | Plant response rating, Foxtail, Giant [10, 16]: 10 | Plant response rating, Foxtail, Giant [10, 17]: 60 | Plant response rating, Corn (corn (Zea mays); [11]): 0 | Plant response rating, Corn (corn (Zea mays); [15]): 0 | Plant response rating, Corn (corn (Zea mays); [16]): 0 | Plant response rating, Corn (corn (Zea mays); [17]): 0
